Several values for one entry are separate records, joined by “and”; a condition that tells them apart may be missing. Equal values may be shown once. Read-outs that look alike come from different tables or passages of the source.
Legend:
[1] = Organic phase/aqueous phase partition coefficient of nicotine in presence of LIX (Table I); assay type: physicochemical; settings: in words; for solubility of the nicotine-LIX complex: water versus hexane
Excerpt: As hereinbefore disclosed, two different experimental criteria can be used to measure the capability of a LIX. First, the organic phase/water phase partition coefficient (PC) can be determined. The partition coefficient, as used herein, can be defined as the ratio of the amount of a substance dissolved in one phase in relation to the amount of the substance dissolved in the second phase. Accordingly, in determining the partition coefficient in the solvent extraction of nicotine from a tobacco processing fluid to another, the ratio would be the concentration of nicotine in the organic (extraction) phase divided by the concentration of nicotine in the aqueous (process) phase. If the partition coefficient increases, i.e., more of the nicotine is soluble in the organic phase, in the presence of a LIX, then this LIX meets one of the objectives for a successful nicotine transfer agent.
Table I is a presentation of the partition coefficients of various liquid ion exchangers, including control experiments where no LIX are utilized. […] Capabilities of the LIX as well as the components of the various phases must all be considered.

[2] = 180 min; 5% LIX, 20 mM nicotine, 4 L FS; ND = None detected
Excerpt: (§1) The apparatus used is a Model MSX-750 laboratory unit purchased from Sepracor, Inc., Marlborough, Mass.; it is a 3-panel, 3-loop, 2-membrane operation. As shown in the Figure, each panel has a solvent circulation pump (1), pressure gauge, flow rotometer, and multiple valves for control of the solvent input and output (not shown). A separate pump controller (not shown) provides variable speed and on/off controls for all three panels. Analysis ports are built into the unit to allow pH readings at the feedstock (2)- and recovery panels (3)- and automatic pH titration at the recovery solution panel. Sample aliquots can be removed from all three system solvents in line (4)- or from the reservoirs (5). The membrane modules (6) contain a hollow fiber bundle in a plastic cartridge with connectors to allow flow through the hollow fibers (lumen) with one solvent and simultaneous flow around the fibers (shell) with an "exchanging" solvent (not shown). The membrane fibers used were either regenerated cellulose (RC) or polyacrylonitrile (PAN) and were 0.5-1.5 square meters in surface area.
For this membrane separation process, solutions are recirculated at 100-900 ml/min. The feedstock reservoir volume is between 0.5 L and 8.0 L of aqueous solution which is 0.1-10.0% dissolved base, e.g., pyridine or nicotine, at a pH between 4 and 10. […]

[3] = 2% LIX in Isopar K, 1.5 m2 PAN
Excerpt: as §1
For this membrane separation process, solutions are recirculated at 100-900 ml/min. The feedstock reservoir volume is between 0.5 L and 8.0 L of aqueous solution which is 0.1-10.0% dissolved base, e.g., pyridine or nicotine, at a pH between 4 and 10. The feedstock solution can also contain other compounds, e.g., tobacco components. The organic solvent (OS) reservoir contains from 300-1000 mL of a water-immiscible solvent like hexane, heptane, octane, nonane, decane or Isopar K (Exxon) to which is added 0.1-10.0% of LIX. The OS is recirculated in the center panel through the lumen of both membrane modules and is always kept at 2-10 psi higher than the aqueous phases to maintain phase separation. The aqueous recovery solution is maintained at a constant pH (1.0-4.0) via an automatic titration unit (Metrohm Model 665 Dosimat with Model 614 Impulsomat and Model 632 Digital-pH-Meter, Metrohm Ltd., CH-9100 Herisau, Switzerland) using 1.0 M sulfuric acid to provide a pH differential and as a collection sink for the base being transferred, e.g., pyridine or nicotine.
Seven consecutive runs were performed with the apparatus outlined in Example XII without the use of a LIX in the OS, changing to a fresh 1 liter 0.32% nicotine FS each run and leaving the RS alone to concentrate the nicotine recovered (Section A). Prior to run 8, fresh FS, OS and RS solutions were placed within the system. For the five consecutive runs 8-12, 2% LIX (Example X) in Isopar K was used as the OS, 0.32% nicotine in deionized water for FS (one liter fresh for each run), and a fresh deionized water RS was left in place for all five runs to concentrate the nicotine (Section B). The volume of the RS increased during the runs 8-12 because the nicotine was transferred into it and because acid solution was pumped into it to maintain a pH of ca. 3. Then three additional runs 13-15 were made using the same OS and the same RS (to form a more concentrated nicotine solution) from Section B; 4 L FS solutions of 0.32% nicotine in deionized water (a fresh solution each run) were used (Section C). […] The OS continues to operate without replacement.

Compound | partition coefficient compared with no LIX present [1] | solubility of the nicotine-LIX complex [1] | Percent (%) remaining in FS [2] | Percent (%) nicotine remaining in FS ([3]; Section B, 0 min, 1 liter FS at 0.32% nicotine) | Percent (%) nicotine remaining in FS ([3]; Section B, 15 min, 1 liter FS at 0.32% nicotine) | Percent (%) nicotine remaining in FS ([3]; Section B, 30 min, 1 liter FS at 0.32% nicotine) | Percent (%) nicotine remaining in FS ([3]; Section B, 45 min, 1 liter FS at 0.32% nicotine) | Percent (%) nicotine remaining in FS ([3]; Section B, 60 min, 1 liter FS at 0.32% nicotine) | Percent (%) nicotine remaining in FS ([3]; Section C, 0 min, 4 liters FS at 0.32% nicotine) | Percent (%) nicotine remaining in FS ([3]; Section C, 60 min, 4 liters FS at 0.32% nicotine) | Percent (%) nicotine remaining in FS ([3]; Section C, 120 min, 4 liters FS at 0.32% nicotine) | Percent (%) nicotine remaining in FS ([3]; Section C, 180 min, 4 liters FS at 0.32% nicotine) | Percent (%) nicotine remaining in FS ([3]; Section C, 240 min, 4 liters FS at 0.32% nicotine)
CCCCC(CC)COC(=O)[C@H](OC(C)=O)[C@@H](OC(C)=O)C(=O)O (mixture of isomers) [Example III, (2R, 3R, 2'R)- and (2R, 3R, 2'S)-Mono(2'-Ethylhexyl) 2,3-Bis(acetyloxy)butanedioate] | less than without any LIX present | more water soluble than hexane soluble |  |  |  |  |  |  |  |  |  |  | 
CCCCC(CC)COC(=O)[C@H](OC(=O)CC)[C@@H](OC(=O)CC)C(=O)O (mixture of isomers) [Example V, (2R, 3R, 2'R)- and (2R, 3R, 2'S)-Mono(2'-Ethylhexyl) 2,3-Bis(propionyloxy)butanedioate] | less than without any LIX present | more water soluble than hexane soluble |  |  |  |  |  |  |  |  |  |  | 
CCCCC(CC)COC(=O)[C@H](OC(=O)C(CC)CCCC)[C@@H](OC(=O)C(CC)CCCC)C(=O)O (stereo partly drawn) [Example X, (2R, 3R, 2'.xi., 2''.xi., 2'''.xi.)-Mono(2'-Ethylhexyl) 2,3-Bis(2-ethylhexanoyloxy)butanedioate] |  |  | 10.0% | 100% | 49% and 50% | 37% and 36% and 35% | 23% and 24% | 14% and 13% | 100% | 51% | 35% and 37% | 21% and 23% | 13%

Reference: patent US5230802A, “Extraction process using a novel organic acid as a liquid ion exchanger” (Philip Morris Incorporated, priority 1992, dated 1993)
